Experimental data reported in ChEMBL document CHEMBL3044870, “Effect of clomazone on various market classes of dry beans” (Crop Prot, 2007).

Legend:
Format in all cases: organism-based
Conditions in all cases: in vivo, other
Phaseolus vulgaris [1] = assay: Phytotoxicity against Phaseolus vulgaris (brown beans) assessed as shoot dry weight at 1116 g a.i./ha applied pre-emergence 1 to 2 days post-planting measured on day 42 post-emergence (reference value: 149 g/m)
Phaseolus vulgaris [2] = assay: Phytotoxicity against Phaseolus vulgaris (yellow eye beans) assessed as visual crop injury at 2232 g a.i./ha applied pre-emergence 1 to 2 days post-planting measured on day 14 post-emergence relative to control
Phaseolus vulgaris [3] = assay: Phytotoxicity against Phaseolus vulgaris (yellow eye beans) assessed as yield at 2232 g a.i./ha applied pre-emergence 1 to 2 days post-planting measured on day 42 post-emergence (reference value: 2.3 tons/ha)
Phaseolus vulgaris [4] = assay: Phytotoxicity against Phaseolus vulgaris (cranberry beans) assessed as shoot dry weight at 1116 g a.i./ha applied pre-emergence 1 to 2 days post-planting measured on day 42 post-emergence (reference value: 161 g/m)
Phaseolus vulgaris [5] = assay: Phytotoxicity against Phaseolus vulgaris (otebo beans) assessed as plant height at 1116 g a.i./ha applied pre-emergence 1 to 2 days post-planting measured on day 28 post-emergence (reference value: 38 cm)
Phaseolus vulgaris [6] = assay: Phytotoxicity against Phaseolus vulgaris (otebo beans) assessed as yield at 1116 g a.i./ha applied pre-emergence 1 to 2 days post-planting measured on day 42 post-emergence (reference value: 3.4 tons/ha)
Phaseolus vulgaris [7] = assay: Phytotoxicity against Phaseolus vulgaris (pinto beans) assessed as plant height at 2232 g a.i./ha applied pre-emergence 1 to 2 days post-planting measured on day 28 post-emergence (reference value: 38 cm)
Phaseolus vulgaris [8] = assay: Phytotoxicity against Phaseolus vulgaris (otebo beans) assessed as shoot dry weight at 2232 g a.i./ha applied pre-emergence 1 to 2 days post-planting measured on day 42 post-emergence (reference value: 188 g/m)
Phaseolus vulgaris [9] = assay: Phytotoxicity against Phaseolus vulgaris (white beans) assessed as yield at 2232 g a.i./ha applied pre-emergence 1 to 2 days post-planting measured on day 42 post-emergence (reference value: 3 tons/ha)
Phaseolus vulgaris [10] = assay: Phytotoxicity against Phaseolus vulgaris (kidney beans) assessed as visual crop injury at 2232 g a.i./ha applied pre-emergence 1 to 2 days post-planting measured on day 14 post-emergence relative to control
Phaseolus vulgaris [11] = assay: Phytotoxicity against Phaseolus vulgaris (otebo beans) assessed as plant height at 2232 g a.i./ha applied pre-emergence 1 to 2 days post-planting measured on day 28 post-emergence (reference value: 38 cm)
Phaseolus vulgaris [12] = assay: Phytotoxicity against Phaseolus vulgaris (kidney beans) assessed as plant height at 1116 g a.i./ha applied pre-emergence 1 to 2 days post-planting measured on day 28 post-emergence (reference value: 37 cm)
Phaseolus vulgaris [13] = assay: Phytotoxicity against Phaseolus vulgaris (cranberry beans) assessed as yield at 1116 g a.i./ha applied pre-emergence 1 to 2 days post-planting measured on day 42 post-emergence (reference value: 3.1 tons/ha)
Phaseolus vulgaris [14] = assay: Phytotoxicity against Phaseolus vulgaris (brown beans) assessed as yield at 2232 g a.i./ha applied pre-emergence 1 to 2 days post-planting measured on day 42 post-emergence (reference value: 2.5 tons/ha)
Phaseolus vulgaris [15] = assay: Phytotoxicity against Phaseolus vulgaris (yellow eye beans) assessed as shoot dry weight at 2232 g a.i./ha applied pre-emergence 1 to 2 days post-planting measured on day 42 post-emergence (reference value: 162 g/m)
Phaseolus vulgaris [16] = assay: Phytotoxicity against Phaseolus vulgaris (black beans) assessed as yield at 1116 g a.i./ha applied pre-emergence 1 to 2 days post-planting measured on day 42 post-emergence (reference value: 3.6 tons/ha)
Phaseolus vulgaris [17] = assay: Phytotoxicity against Phaseolus vulgaris (white beans) assessed as yield at 1116 g a.i./ha applied pre-emergence 1 to 2 days post-planting measured on day 42 post-emergence (reference value: 3 tons/ha)
Phaseolus vulgaris [18] = assay: Phytotoxicity against Phaseolus vulgaris (cranberry beans) assessed as shoot dry weight at 2232 g a.i./ha applied pre-emergence 1 to 2 days post-planting measured on day 42 post-emergence (reference value: 161 g/m)
Phaseolus vulgaris [19] = assay: Phytotoxicity against Phaseolus vulgaris (yellow eye beans) assessed as shoot dry weight at 1116 g a.i./ha applied pre-emergence 1 to 2 days post-planting measured on day 42 post-emergence (reference value: 162 g/m)
Phaseolus vulgaris [20] = assay: Phytotoxicity against Phaseolus vulgaris (dry beans) assessed as visual crop injury at 2232 g a.i./ha applied pre-emergence 1 to 2 days post-planting measured on day 14 post-emergence relative to control
Phaseolus vulgaris [21] = assay: Phytotoxicity against Phaseolus vulgaris (pinto beans) assessed as shoot dry weight at 1116 g a.i./ha applied pre-emergence 1 to 2 days post-planting measured on day 42 post-emergence (reference value: 168 g/m)
Phaseolus vulgaris [22] = assay: Phytotoxicity against Phaseolus vulgaris (dry beans) assessed as visual crop injury at 1116 g a.i./ha applied pre-emergence 1 to 2 days post-planting measured on day 28 post-emergence relative to control
Phaseolus vulgaris [23] = assay: Phytotoxicity against Phaseolus vulgaris (black beans) assessed as plant height at 1116 g a.i./ha applied pre-emergence 1 to 2 days post-planting measured on day 28 post-emergence (reference value: 34 cm)
Phaseolus vulgaris [24] = assay: Phytotoxicity against Phaseolus vulgaris (kidney beans) assessed as plant height at 2232 g a.i./ha applied pre-emergence 1 to 2 days post-planting measured on day 28 post-emergence (reference value: 37 cm)
Phaseolus vulgaris [25] = assay: Phytotoxicity against Phaseolus vulgaris (kidney beans) assessed as shoot dry weight at 2232 g a.i./ha applied pre-emergence 1 to 2 days post-planting measured on day 42 post-emergence (reference value: 145 g/m)
Phaseolus vulgaris [26] = assay: Phytotoxicity against Phaseolus vulgaris (pinto beans) assessed as visual crop injury at 1116 g a.i./ha applied pre-emergence 1 to 2 days post-planting measured on day 14 post-emergence relative to control
Phaseolus vulgaris [27] = assay: Phytotoxicity against Phaseolus vulgaris (white beans) assessed as visual crop injury at 2232 g a.i./ha applied pre-emergence 1 to 2 days post-planting measured on day 14 post-emergence relative to control
Phaseolus vulgaris [28] = assay: Phytotoxicity against Phaseolus vulgaris (yellow eye beans) assessed as visual crop injury at 1116 g a.i./ha applied pre-emergence 1 to 2 days post-planting measured on day 14 post-emergence relative to control
Phaseolus vulgaris [29] = assay: Phytotoxicity against Phaseolus vulgaris (cranberry beans) assessed as visual crop injury at 1116 g a.i./ha applied pre-emergence 1 to 2 days post-planting measured on day 14 post-emergence relative to control
Phaseolus vulgaris [30] = assay: Phytotoxicity against Phaseolus vulgaris (white beans) assessed as visual crop injury at 1116 g a.i./ha applied pre-emergence 1 to 2 days post-planting measured on day 14 post-emergence relative to control
Phaseolus vulgaris [31] = assay: Phytotoxicity against Phaseolus vulgaris (dry beans) assessed as visual crop injury at 2232 g a.i./ha applied pre-emergence 1 to 2 days post-planting measured on day 7 post-emergence relative to control
Phaseolus vulgaris [32] = assay: Phytotoxicity against Phaseolus vulgaris (brown beans) assessed as plant height at 2232 g a.i./ha applied pre-emergence 1 to 2 days post-planting measured on day 28 post-emergence (reference value: 37 cm)

`CC1(C)CON(Cc2ccccc2Cl)C1=O` [CLOMAZONE] gave an Activity (Phaseolus vulgaris [1]) of 139 g/m, an Activity (Phaseolus vulgaris [2]) of 10% and a Crop_yield (Phaseolus vulgaris [3]) of 2.5 tons/ha. For the same molecule, the Activity (Phaseolus vulgaris [4]) was 150 g/m, the Activity (Phaseolus vulgaris [5]) was 37 cm and the Crop_yield (Phaseolus vulgaris [6]) was 3.4 tons/ha. The Activity (Phaseolus vulgaris [7]) was 32 cm, the Activity (Phaseolus vulgaris [8]) was 168 g/m and the Crop_yield (Phaseolus vulgaris [9]) was 3.2 tons/ha. The Activity (Phaseolus vulgaris [10]) was 10%, the Activity (Phaseolus vulgaris [11]) was 34 cm and the Activity (Phaseolus vulgaris [12]) was 35 cm. It also gave a Crop_yield (Phaseolus vulgaris [13]) of 3.2 tons/ha, a Crop_yield (Phaseolus vulgaris [14]) of 2.7 tons/ha and an Activity (Phaseolus vulgaris [15]) of 130 g/m. The Crop_yield (Phaseolus vulgaris [16]) was 3.3 tons/ha, the Crop_yield (Phaseolus vulgaris [17]) was 3.1 tons/ha and the Activity (Phaseolus vulgaris [18]) was 137 g/m. For the same molecule, the Activity (Phaseolus vulgaris [19]) was 160 g/m, the Activity (Phaseolus vulgaris [20]) was 10% and the Activity (Phaseolus vulgaris [21]) was 166 g/m. It also gave an Activity (Phaseolus vulgaris [22]) of 1%, an Activity (Phaseolus vulgaris [23]) of 34 cm and an Activity (Phaseolus vulgaris [24]) of 33 cm. For the same molecule, the Activity (Phaseolus vulgaris [25]) was 116 g/m, the Activity (Phaseolus vulgaris [26]) was 4% and the Activity (Phaseolus vulgaris [27]) was 6%. For the same molecule, the Activity (Phaseolus vulgaris [28]) was 6%, the Activity (Phaseolus vulgaris [29]) was 6% and the Activity (Phaseolus vulgaris [30]) was 2%. The Activity (Phaseolus vulgaris [31]) was 11% and the Activity (Phaseolus vulgaris [32]) was 35 cm.
